Measurements from patent US20080233179A1, “TRANSDERMAL COMPOSITION HAVING ENHANCED COLOR STABILITY” (priority 2006, published 2008).
Structures can show the parent of a compound that is named as a salt. Values belong to the compound of their own block, whether it stands above or below them.

Experiments:
[1] = levodopa taken alone; cited from earlier work
[2] = Lowest effective concentration of sodium metabisulfite on pramipexole color stability (Example 4); assay type: physicochemical; conditions: pramipexole hydrochloride 2.00% (FBE) hydro-alcoholic mixture at apparent pH around 8.0
Experimental: A formulation free of antioxidants served as a blank reference (Formulation F).
In parallel, samples stored at 40° C. in a climatic chamber (C-20/600, Climat Temperatur System, Hechingen, Germany) for 1 month were assessed for color as well. […] The formulation containing the lowest level of sodium metabisulfite (0.10% wt, formulation C) was ranked “BY2”. All the other formulations were colorless.

D3 receptors = D3 receptors (Homo sapiens, UniProt P35462); conditions: cited from earlier work
Sequence of D3 receptors (P35462 whole entry): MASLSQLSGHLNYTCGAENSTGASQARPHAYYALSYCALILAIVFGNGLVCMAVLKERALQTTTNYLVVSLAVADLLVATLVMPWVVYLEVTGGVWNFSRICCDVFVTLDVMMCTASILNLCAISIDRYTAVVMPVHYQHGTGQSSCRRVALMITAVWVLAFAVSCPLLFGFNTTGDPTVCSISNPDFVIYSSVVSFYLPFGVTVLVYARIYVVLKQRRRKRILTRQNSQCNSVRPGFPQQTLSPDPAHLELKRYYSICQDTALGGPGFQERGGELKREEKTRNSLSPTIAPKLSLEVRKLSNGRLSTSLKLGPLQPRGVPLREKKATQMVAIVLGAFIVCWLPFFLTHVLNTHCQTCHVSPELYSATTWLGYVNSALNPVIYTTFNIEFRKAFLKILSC

[3] = three times a day, pramipexole dihydrochloride tablets (Wright et al. 1997); cited from earlier work
[4] = system: D2 subfamily of dopamine receptors; conditions: in vitro; cited from earlier work

Compound: N[C@@H](Cc1ccc(O)c(O)c1)C(=O)O [levodopa]
fraction of the drug broken down into dopamine before it reaches the brain [1]: about 95%

minimal amount of sodium metabisulfite preventing color degradation [2]: 0.2 % wt
Compound: O=S([O-])S(=O)(=O)[O-].[Na+].[Na+] [sodium metabisulfite, Sodium metabisulfite]

Compound: CCCN[C@H]1CCc2nc(N)sc2C1 [pramipexole, (S)-2-amino-4,5,6,7-tetrahydro-6-(propylamino)benzothiazole dihydrochloride monohydrate]
affinity for D3 receptors relative to D2 or D4 receptor subtypes (D3 receptors): higher affinity than to D2 or D4 receptor subtypes
steady-state pharmacokinetic characteristics [3]: linear up to a daily dose of 4.5 mg
intrinsic activity at the D2 subfamily of dopamine receptors [4]: full intrinsic activity
